In this assay the test system is WT Mtb Erdman strain. Kind of assay: Microplate Alamar Blue Assay (MABA), Mtb growth inhibition. It counts as cell-based, Mycobacterium tuberculosis. Particulars: Mycobacterium tuberculosis, ERDMAN, 168 h, Middlebrook 7H9 media, 7 days at 37° C. in 5% CO2.

Broadly, the IC50 is the concentration needed to halve the response being measured. Read a low IC50 as inhibition by little substance. The compound `CCc1nc(NCCCc2cn(-c3ccccc3)nn2)c2cc(C)sc2n1` [Example 563, 2-ethyl-6-methyl-N-(3-(1-phenyl-1H-1,2,3-triazol-4-yl)propyl)thieno[2,3-d]pyrimidin-4-amine] yielded an IC50 of 4700 nM.

For `CNC(=O)c1nc(NCCCc2ccc(OC(F)(F)F)cc2)c2cc(C)sc2n1` [Example 564, N,6-dimethyl-4-((3-(4-(trifluoromethoxy)phenyl)propyl)amino)thieno[2,3-d]pyrimidine-2-carboxamide], the midpoint of inhibition, the IC50, lay at 1200 nM.

With `Cc1cc2c(NCCCc3ccc(OC(F)(F)F)cc3)nc(C(=O)NC3CC3)nc2s1` [Example 565, N-cyclopropyl-6-methyl-4-((3-(4-(trifluoromethoxy)phenyl)propyl)amino)thieno[2,3-d]pyrimidine-2-carboxamide], it took 4300 nM to reach half-maximal inhibition (IC50).

With `Cc1cc2c(N[C@H]3C[C@@H]3c3ccc(F)c(F)c3)nc(-c3ccc[nH]3)nc2s1` [Example 566, N-((1S,2R)-2-(3,4-difluorophenyl)cyclopropyl)-6-methyl-2-(1H-pyrrol-2-yl)thieno[2,3-d]pyrimidin-4-amine], the IC50 turned out to be 1600 nM.

For `Cc1cc2c(NCCCc3ccc(-c4ccc(OC(F)(F)F)cc4)cc3)nc(-c3ccc[nH]3)nc2s1` [Example 567, 6-methyl-2-(1H-pyrrol-2-yl)-N-(3-(4′-(trifluoromethoxy)-[1,1′-biphenyl]-4-yl)propyl)thieno[2,3-d]pyrimidin-4-amine], the IC50 is below 4 nM.

Consider `Cc1cc2c(NCCCc3ccc(-c4ccc(OC(F)(F)F)cc4)cc3)nc(-c3cc[nH]c3)nc2s1` [Example 568, 6-methyl-2-(1H-pyrrol-3-yl)-N-(3-(4′-(trifluoromethoxy)-[1,1′-biphenyl]-4-yl)propyl)thieno[2,3-d]pyrimidin-4-amine], for which the IC50 was above 1000 nM.

For `Cc1cc2c(NCCCc3ccc(-c4ccc([N+](=O)[O-])cc4)cc3)nc(-c3cc[nH]c3)nc2s1` [Example 569, 6-methyl-N-(3-(4′-nitro-[1,1′-biphenyl]-4-yl)propyl)-2-(1H-pyrrol-3-yl)thieno[2,3-d]pyrimidin-4-amine], 70 nM corresponded to half-maximal inhibition (IC50).

On to `Cc1cc2c(NCCCc3ccc(-c4ccc(C(F)(F)F)cn4)cc3)nc(-c3cc[nH]c3)nc2s1` [Example 570, 6-methyl-2-(1H-pyrrol-3-yl)-N-(3-(4-(5-(trifluoromethyl)pyridin-2-yl)phenyl)propyl)thieno[2,3-d]pyrimidin-4-amine], for which half-maximal inhibition (IC50) was put at 230 nM.

With `FC(F)(F)Oc1ccc(-c2ccc(CCCNc3nc(-c4ccc[nH]4)nc4sccc34)cc2)cc1` [Example 574, 2-(1H-pyrrol-2-yl)-N-(3-(4′-(trifluoromethoxy)-[1,1′-biphenyl]-4-yl)propyl)thieno[2,3-d]pyrimidin-4-amine], the IC50 was above 520 nM.

`Cc1cc2c(NCCCc3ccc(-c4cnc(N5CCCC5)cn4)cc3)nc(N3CCCC3)nc2s1` [Example 575, 6-methyl-2-(pyrrolidin-1-yl)-N-(3-(4-(5-(pyrrolidin-1-yl)pyrazin-2-yl)phenyl)propyl)thieno[2,3-d]pyrimidin-4-amine] displayed an IC50 of 91 nM.

With `CCc1nc(NC(=O)CCCc2ccccc2)c2cc(C)sc2n1` [Example 576, N-(2-ethyl-6-methylthieno[2,3-d]pyrimidin-4-yl)-4-phenylbutanamide], the IC50 is 3400 nM.

The compound `Cc1cc2c(NC(=O)CCc3ccccc3)nc(-c3ccoc3)nc2s1` [Example 577, N-(2-(furan-3-yl)-6-methylthieno[2,3-d]pyrimidin-4-yl)-3-phenylpropanamide] showed an IC50 of 71 nM.

Compound `Cc1cc2c(NCCCc3ccccc3)nc(S(C)(=O)=O)nc2s1` [Example 578, 6-methyl-2-(methylsulfonyl)-N-(3-phenylpropyl)thieno[2,3-d]pyrimidin-4-amine] had an IC50 of 4000 nM.

The compound `Cc1cc2c(NCCCc3ccccc3)nc(C(=O)O)nc2s1` [Example 579, 6-methyl-4-((3-phenylpropyl)amino)thieno[2,3-d]pyrimidine-2-carboxylic acid] registered an IC50 above 10000 nM.

Compound `Cc1cc2c(NCCCc3ccccc3)nc(OC(F)F)nc2s1` [Example 580, 2-(difluoromethoxy)-6-methyl-N-(3-phenylpropyl)thieno[2,3-d]pyrimidin-4-amine] displayed an IC50 above 10000 nM.

With `Cc1cc2c(NCCCc3ccccc3)nc([S+](C)[O-])nc2s1` (stereo not drawn) [Example 581, 6-methyl-2-(methylsulfinyl)-N-(3-phenylpropyl)thieno[2,3-d]pyrimidin-4-amine], the IC50 stood at 1300 nM.

In turn, `C=C(C)c1nc(NCCCc2ccccc2)c2cc(C)sc2n1` [Example 582, 6-methyl-N-(3-phenylpropyl)-2-(prop-1-en-2-yl)thieno[2,3-d]pyrimidin-4-amine] yielded an IC50 of 170 nM.

Regarding `Cc1nc(NCCCc2ccccc2)c2nc(Cl)sc2n1` [Example 583, 2-chloro-5-methyl-N-(3-phenylpropyl)thiazolo[5,4-d]pyrimidin-7-amine], it took 5800 nM to reach half-maximal inhibition (IC50).

Compound `Cc1nc(NCCCc2ccccc2)c2ncsc2n1` [Example 584, 5-methyl-N-(3-phenylpropyl)thiazolo[5,4-d]pyrimidin-7-amine] returned an IC50 above 10000 nM.

Compound `Cc1cc2c(NCCCc3ccccc3)nc(-n3ccnn3)nc2s1` [Example 586, 6-methyl-N-(3-phenylpropyl)-2-(1H-1,2,3-triazol-1-yl)thieno[2,3-d]pyrimidin-4-amine] returned an IC50 of 200 nM.

`Cc1cc2c(NCCCc3ccc(OC(F)(F)F)cc3)nc(-n3ccnn3)nc2s1` [Example 587, 6-methyl-2-(1H-1,2,3-triazol-1-yl)-N-(3-(4-(trifluoromethoxy)phenyl)propyl)thieno[2,3-d]pyrimidin-4-amine] gave an IC50 of 1100 nM.

As to `CCc1nc(NCCCc2ccccc2O)c2cc(C)sc2n1` [Example 588, 2-(3-((2-ethyl-6-methylthieno[2,3-d]pyrimidin-4-yl)amino)propyl)phenol], the midpoint of inhibition, the IC50, lay at 4400 nM.

The compound `Cc1cc2c(NCCCc3ccccc3O)nc(C(F)(F)F)nc2s1` [Example 589, 2-(3-((6-methyl-2-(trifluoromethyl)thieno[2,3-d]pyrimidin-4-yl)amino)propyl)phenol] had an IC50 above 10000 nM.

`CCc1nc(NCCCc2ccc(Nc3ccccc3)cc2)c2cc(C)sc2n1` [Example 590, 2-ethyl-6-methyl-N-(3-(4-(phenylamino)phenyl)propyl)thieno[2,3-d]pyrimidin-4-amine] came in with an IC50 of 530 nM.

For `CCc1nc(NCCCc2ccc(N=[N+]=[N-])cc2)c2cc(C)sc2n1` [Example 591, N-(3-(4-azidophenyl)propyl)-2-ethyl-6-methylthieno[2,3-d]pyrimidin-4-amine], the IC50 is above 10000 nM.

`Cc1cc2c(NCCCc3ccc(N=[N+]=[N-])cc3)nc(C(F)(F)F)nc2s1` [Example 592, N-(3-(4-azidophenyl)propyl)-6-methyl-2-(trifluoromethyl)thieno[2,3-d]pyrimidin-4-amine] returned an IC50 of 4400 nM.

`CCc1nc(NCCCc2ccc(-n3ccnn3)cc2)c2cc(C)sc2n1` [Example 593, N-(3-(4-(1H-1,2,3-triazol-1-yl)phenyl)propyl)-2-ethyl-6-methylthieno[2,3-d]pyrimidin-4-amine]: it took 530 nM to reach half-maximal inhibition (IC50).

In turn, `Cc1cc2c(NCCCc3ccc(-c4ccc[nH]4)cc3)nc(-c3ccoc3)nc2s1` [Example 594, 2-(furan-3-yl)-6-methyl-N-(3-[4-(1H-pyrrol-2-yl)phenyl]propyl)thieno[2,3-d]pyrimidin-4-amine] had an IC50 of 240 nM.

Compound `Cc1cc2c(NCCCc3ccc(-c4ccc(OC(F)(F)F)cc4)cc3)nc(OCC(F)(F)F)nc2s1` [Example 596, 6-methyl-2-(2,2,2-trifluoroethoxy)-N-(3-(4′-(trifluoromethoxy)-[1,1′-biphenyl]-4-yl)propyl)thieno[2,3-d]pyrimidin-4-amine] showed an IC50 of 29 nM.

The compound `Cc1cc2c(NCCCc3ccc(-c4ccc(OC(F)(F)F)cc4)cc3)nc(SC(F)(F)F)nc2s1` [Example 597, 6-methyl-N-(3-(4′-(trifluoromethoxy)-[1,1′-biphenyl]-4-yl)propyl)-2-((trifluoromethyl)thio)thieno[2,3-d]pyrimidin-4-amine] yielded an IC50 of 6300 nM.

Turning to `Cc1cc2c(NCCCc3ccc(-c4ccc(OC(F)(F)F)cc4)cc3)nc(Br)nc2s1` [Example 598, 2-bromo-6-methyl-N-(3-(4′-(trifluoromethoxy)-[1,1′-biphenyl]-4-yl)propyl)thieno[2,3-d]pyrimidin-4-amine], it took 81 nM to reach half-maximal inhibition (IC50).

Compound `CC(=O)Nc1nc(NCCCc2ccc(-c3ccc(OC(F)(F)F)cc3)cc2)c2cc(C)sc2n1` [Example 599, N-(6-methyl-4-((3-(4′-(trifluoromethoxy)-[1,1′-biphenyl]-4-yl)propyl)amino)thieno[2,3-d]pyrimidin-2-yl)acetamide] gave an IC50 above 370 nM.

On to `Cc1cc2c(NCCCc3ccc(-c4ccc(C(=O)O)cc4)cc3)nc(-c3ccoc3)nc2s1` [Example 601, 4′-(3-((2-(furan-3-yl)-6-methylthieno[2,3-d]pyrimidin-4-yl)amino)propyl)-[1,1′-biphenyl]-4-carboxylic acid], for which the IC50 is 530 nM.

`Cc1cc2c(NCCCc3ccc(-c4ccc(OC(F)(F)F)cc4)cc3)nc(-n3ccnn3)nc2s1` [Example 602, 6-methyl-2-(1H-1,2,3-triazol-1-yl)-N-(3-(4′-(trifluoromethoxy)-[1,1′-biphenyl]-4-yl)propyl)thieno[2,3-d]pyrimidin-4-amine] had an IC50 of 190 nM.

As for `Cc1cc2c(NCCCc3ccc(-n4cccc4)cc3)nc(-c3ccoc3)nc2s1` [Example 604, 2-(furan-3-yl)-6-methyl-N-(3-[4-(1H-pyrrol-1-yl)phenyl]propyl)thieno[2,3-d]pyrimidin-4-amine], the midpoint of inhibition, the IC50, lay at 28 nM.

The compound `Cc1cc2c(NCCCc3ccc(-c4ccc(OC(F)(F)F)cc4)cc3)nc(C#N)nc2s1` [Example 605, 6-methyl-4-((3-[4′-(trifluoromethoxy)-[1,1′-biphenyl]-4-yl]propyl)amino)thieno[2,3-d]pyrimidine-2-carbonitrile] yielded an IC50 above 10000 nM.

The values are drawn from US20240279236A1, “COMPOUNDS AND METHODS OF TREATING TUBERCULOSIS” (Fimbrion Therapeutics, Inc., priority 2021, published 2024).
